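Here, GI50 denotes the concentration required for 50% inhibition of growth. TGI: total growth inhibition.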
Legend:
Assay in all cases: NCI-60 cell line screen, 384-well format
HOP-92 NSCLC = test system: HOP-92 NSCLC
SF-539 CNS = test system: SF-539 CNS
SNB-75 CNS = test system: SNB-75 CNS
UACC-257 melanoma = test system: UACC-257 melanoma
SF-295 CNS = test system: SF-295 CNS
NCI-H522 lung = test system: NCI-H522 lung
UO-31 renal = test system: UO-31 renal
HCC-2998 colon = test system: HCC-2998 colon
CAKI-1 renal = test system: CAKI-1 renal
MDA-MB-468 breast = test system: MDA-MB-468 breast
OVCAR-4 ovarian = test system: OVCAR-4 ovarian
SK-MEL-5 melanoma = test system: SK-MEL-5 melanoma
DU-145 prostate = test system: DU-145 prostate
OVCAR-3 ovarian = test system: OVCAR-3 ovarian
TK-10 renal = test system: TK-10 renal
MCF7 breast = test system: MCF7 breast
MDA-MB-435 melanoma = test system: MDA-MB-435 melanoma
COLO 205 colon = test system: COLO 205 colon
RXF 393 renal = test system: RXF 393 renal
HT29 colon = test system: HT29 colon
HL-60(TB) leukemia = test system: HL-60(TB) leukemia
LOX IMVI melanoma = test system: LOX IMVI melanoma
HCT-15 colon = test system: HCT-15 colon
SK-MEL-28 melanoma = test system: SK-MEL-28 melanoma
A498 renal = test system: A498 renal
HS 578T breast = test system: HS 578T breast
EKVX NSCLC = test system: EKVX NSCLC
NCI-H226 lung = test system: NCI-H226 lung
M14 melanoma = test system: M14 melanoma
IGROV1 ovarian = test system: IGROV1 ovarian
NCI-H460 NSCLC = test system: NCI-H460 NSCLC
UACC-62 melanoma = test system: UACC-62 melanoma
CCRF-CEM leukemia = test system: CCRF-CEM leukemia
KM12 colon = test system: KM12 colon
OVCAR-8 ovarian = test system: OVCAR-8 ovarian
T-47D breast = test system: T-47D breast
RPMI-8226 leukemia = test system: RPMI-8226 leukemia
ACHN renal = test system: ACHN renal
SW-620 colon = test system: SW-620 colon
786-0 renal = test system: 786-0 renal
NCI/ADR-RES ovarian = test system: NCI/ADR-RES ovarian
SF-268 CNS = test system: SF-268 CNS
SN12C renal = test system: SN12C renal
SNB-19 CNS = test system: SNB-19 CNS
SK-OV-3 ovarian = test system: SK-OV-3 ovarian
HOP-62 NSCLC = test system: HOP-62 NSCLC
NCI-H322M lung = test system: NCI-H322M lung
MALME-3M melanoma = test system: MALME-3M melanoma
K-562 leukemia = test system: K-562 leukemia
SR leukemia = test system: SR leukemia
OVCAR-5 ovarian = test system: OVCAR-5 ovarian
MDA-MB-231 breast = test system: MDA-MB-231 breast
A549 NSCLC = test system: A549 NSCLC
BT-549 breast = test system: BT-549 breast
NCI-H23 lung = test system: NCI-H23 lung
MOLT-4 leukemia = test system: MOLT-4 leukemia
PC-3 prostate = test system: PC-3 prostate

C[C@@H]1OCC2(CCN(c3cnc(Sc4ccnc(N)c4Cl)c(N)n3)CC2)[C@@H]1N
GI50 (HOP-92 NSCLC): 0.0569 µM | TGI (HOP-92 NSCLC): 1.05 µM | GI50 (SF-539 CNS): 34.7 µM | TGI (SF-539 CNS): > 100 µM | GI50 (SNB-75 CNS): 51.2 µM | TGI (SNB-75 CNS): > 100 µM | GI50 (UACC-257 melanoma): > 100 µM | TGI (UACC-257 melanoma): > 100 µM | GI50 (SF-295 CNS): > 100 µM | TGI (SF-295 CNS): > 100 µM | GI50 (NCI-H522 lung): 1.44 µM | TGI (NCI-H522 lung): > 100 µM | GI50 (UO-31 renal): 27.6 µM | TGI (UO-31 renal): > 100 µM | GI50 (HCC-2998 colon): > 100 µM | TGI (HCC-2998 colon): > 100 µM | GI50 (CAKI-1 renal): 0.426 µM | TGI (CAKI-1 renal): > 100 µM | GI50 (MDA-MB-468 breast): 0.0533 µM | TGI (MDA-MB-468 breast): 0.355 µM | GI50 (OVCAR-4 ovarian): > 100 µM | TGI (OVCAR-4 ovarian): > 100 µM | GI50 (SK-MEL-5 melanoma): > 100 µM | TGI (SK-MEL-5 melanoma): > 100 µM | GI50 (DU-145 prostate): > 100 µM | TGI (DU-145 prostate): > 100 µM | GI50 (OVCAR-3 ovarian): 77.9 µM | TGI (OVCAR-3 ovarian): > 100 µM | GI50 (TK-10 renal): 3.58 µM | TGI (TK-10 renal): > 100 µM | GI50 (MCF7 breast): > 100 µM | TGI (MCF7 breast): > 100 µM | GI50 (MDA-MB-435 melanoma): > 100 µM | TGI (MDA-MB-435 melanoma): > 100 µM | GI50 (COLO 205 colon): > 100 µM | TGI (COLO 205 colon): > 100 µM | GI50 (RXF 393 renal): > 100 µM | TGI (RXF 393 renal): > 100 µM | GI50 (HT29 colon): > 100 µM | TGI (HT29 colon): > 100 µM | GI50 (HL-60(TB) leukemia): 65.1 µM | TGI (HL-60(TB) leukemia): > 100 µM | GI50 (LOX IMVI melanoma): > 100 µM | TGI (LOX IMVI melanoma): > 100 µM | GI50 (HCT-15 colon): > 100 µM | TGI (HCT-15 colon): > 100 µM | GI50 (SK-MEL-28 melanoma): > 100 µM | TGI (SK-MEL-28 melanoma): > 100 µM | GI50 (A498 renal): 4.18 µM | TGI (A498 renal): > 100 µM | GI50 (HS 578T breast): > 100 µM | TGI (HS 578T breast): > 100 µM | GI50 (EKVX NSCLC): 16.5 µM | TGI (EKVX NSCLC): > 100 µM | GI50 (NCI-H226 lung): 1.18 µM | TGI (NCI-H226 lung): > 100 µM | GI50 (M14 melanoma): > 100 µM | TGI (M14 melanoma): > 100 µM | GI50 (IGROV1 ovarian): 0.918 µM | TGI (IGROV1 ovarian): > 100 µM | GI50 (NCI-H460 NSCLC): > 100 µM | TGI (NCI-H460 NSCLC): > 100 µM | GI50 (UACC-62 melanoma): > 100 µM | TGI (UACC-62 melanoma): > 100 µM | GI50 (CCRF-CEM leukemia): 32 µM | TGI (CCRF-CEM leukemia): > 100 µM | GI50 (KM12 colon): 0.621 µM | TGI (KM12 colon): > 100 µM | GI50 (OVCAR-8 ovarian): 44.3 µM | TGI (OVCAR-8 ovarian): > 100 µM | GI50 (T-47D breast): 29.3 µM | TGI (T-47D breast): > 100 µM | GI50 (RPMI-8226 leukemia): 21 µM | TGI (RPMI-8226 leukemia): > 100 µM | GI50 (ACHN renal): 4.99 µM | TGI (ACHN renal): > 100 µM | GI50 (SW-620 colon): > 100 µM | TGI (SW-620 colon): > 100 µM | GI50 ([…]-0 renal): > 100 µM | TGI (786-0 renal): > 100 µM | GI50 (NCI/ADR-RES ovarian): 17.7 µM | TGI (NCI/ADR-RES ovarian): > 100 µM | GI50 (SF-268 CNS): > 100 µM | TGI (SF-268 CNS): > 100 µM | GI50 (SN12C renal): 3.87 µM | TGI (SN12C renal): > 100 µM | GI50 (SNB-19 CNS): > 100 µM | TGI (SNB-19 CNS): > 100 µM | GI50 (SK-OV-3 ovarian): 25.2 µM | TGI (SK-OV-3 ovarian): > 100 µM | GI50 (HOP-62 NSCLC): > 100 µM | TGI (HOP-62 NSCLC): > 100 µM | GI50 (NCI-H322M lung): 0.234 µM | TGI (NCI-H322M lung): > 100 µM | GI50 (MALME-3M melanoma): > 100 µM | TGI (MALME-3M melanoma): > 100 µM | GI50 (K-562 leukemia): 0.148 µM | TGI (K-562 leukemia): > 100 µM | GI50 (SR leukemia): 0.519 µM | TGI (SR leukemia): 13.4 µM | GI50 (OVCAR-5 ovarian): > 100 µM | TGI (OVCAR-5 ovarian): > 100 µM | GI50 (MDA-MB-231 breast): > 100 µM | TGI (MDA-MB-231 breast): > 100 µM | GI50 (A549 NSCLC): > 100 µM | TGI (A549 NSCLC): > 100 µM | GI50 (BT-549 breast): 35.1 µM | TGI (BT-549 breast): > 100 µM | GI50 (NCI-H23 lung): 0.0797 µM | TGI (NCI-H23 lung): 44.2 µM | GI50 (MOLT-4 leukemia): 35.9 µM | TGI (MOLT-4 leukemia): > 100 µM | GI50 (PC-3 prostate): > 100 µM | TGI (PC-3 prostate): > 100 µM

— PubChem BioAssay (NCI)
